pIC50: −log10 of the molar value. The source made the active and inactive calls. The rule behind the calls is not given here.
Key:
Acetylcholinesterase = Acetylcholinesterase (Electrophorus electricus, UniProt O42275); assay: Inhibition of electric eel AChE using acetylthiocholine chloride as substrate preincubated for 15 mins followed by substrate addition measured every minute by Ellman's method
Cholinesterase = Cholinesterase (Equus caballus, UniProt P81908); assay: Inhibition of equine serum BuChE using butyrylthiocholine chloride as substrate preincubated for 15 mins followed by substrate addition measured every minute by Ellman's method
[1] = target: Acetylcholinesterase (Electrophorus electricus) (UniProt O42275); assay: Mixed-type inhibition of electric eel AChE at 25 to 100 nM using acetylthiocholine chloride as substrate preincubated for 15 mins followed by substrate addition by Lineweaver-Burk plot analysis
[2] = target: Amyloid-beta precursor protein (Homo sapiens) (UniProt P05067); assay: Inhibition of human self-induced amyloid beta (1 to 42) aggregation at 20 uM after 48 hrs by uranyl acetate staining based TEM analysis
[3] = Cytotoxicity against human HepG2 cells assessed as inhibition of cell viability at 1 uM by MTT assay relative to control; format: cell-based; details: read-out: INH
[4] = Cytotoxicity against human HepG2 cells assessed as inhibition of cell viability at 10 uM by MTT assay relative to control; format: cell-based; details: read-out: INH
[5] = Cytotoxicity against human HepG2 cells assessed as inhibition of cell viability at 50 uM by MTT assay relative to control; format: cell-based; details: read-out: INH
[6] = Cytotoxicity against rat PC12 cells assessed as inhibition of cell viability at 1 uM by MTT assay relative to control; format: cell-based, PC-12; details: read-out: INH
[7] = Cytotoxicity against rat PC12 cells assessed as inhibition of cell viability at 10 uM by MTT assay relative to control; format: cell-based, PC-12; details: read-out: INH
[8] = Cytotoxicity against rat PC12 cells assessed as inhibition of cell viability at 50 uM by MTT assay relative to control; format: cell-based, PC-12; details: read-out: INH
L02 [9] = assay: Cytotoxicity against human HL7702 cells assessed as reduction in cell viability at 1 to 10 uM by MTT assay; format: cell-based; details: l02, 10 µM
L02 [10] = assay: Induction of apoptosis in human HL7702 cells at 10 uM in presence of PI3K inhibitor LY294002 by FITC staining based flow cytometry relative to control; format: cell-based; details: l02, 10 µM
Mus musculus [11] = assay: Hepatotoxicity in Kunming mouse assessed as histomorphological changes in liver at 106 mg/kg, ig after 48 hrs by H and E staining based assay; format: toxicity, organism-based; details: in vivo, po
Mus musculus [12] = assay: Hepatotoxicity in Kunming mouse assessed as increase in serum ALT level at 106 mg/kg, ig after 48 hrs by colorimetric method relative to control; format: toxicity, organism-based; details: in vivo, po
Mus musculus [13] = assay: Hepatotoxicity in Kunming mouse assessed as increase in serum ASAT level at 106 mg/kg, ig after 48 hrs by colorimetric method relative to control; format: toxicity, organism-based; details: in vivo, po
Mus musculus [14] = assay: Cognition enhancing effect in ICR mouse model of scopalamine-induced memory impairment assessed as improvement in target quadrant preference at 20 umol equiv/kg, po pretreated for 30 mins followed by scopalamine treatment measured on day 15 by Morris water maze test; format: functional, organism-based
Mus musculus [15] = assay: Effect on spatial memory performance in ICR mouse model of scopalamine-induced memory impairment assessed as total distance travelled at 20 umol equiv/kg, po pretreated for 30 mins followed by scopalamine treatment measured for 90 secs by Morris water maze test; format: ADME, organism-based; details: 0.025 h
Mus musculus [16] = assay: Effect on spatial memory performance in ICR mouse model of scopalamine-induced memory impairment assessed as swimming speed at 20 umol equiv/kg, po pretreated for 30 mins followed by scopalamine treatment measured for 90 secs by Morris water maze test; format: ADME, organism-based; details: 0.025 h
[17] = target: Acetylcholinesterase (Electrophorus electricus) (UniProt O42275); assay: Inhibition of electric eel AChE at 50 uM using acetylthiocholine chloride as substrate preincubated for 15 mins followed by substrate addition measured every minute by Ellman's method
[18] = target: Cholinesterase (Equus caballus) (UniProt P81908); assay: Inhibition of equine serum BuChE at 50 uM using butyrylthiocholine chloride as substrate preincubated for 15 mins followed by substrate addition measured every minute by Ellman's method
Mus musculus [19] = assay: Hepatotoxicity in Kunming mouse assessed as inflammatory cell infiltration in liver at 35 mg/kg, ig cotreated with THA after 48 hrs by H and E staining based assay; format: toxicity, organism-based; details: in vivo, po
Mus musculus [20] = assay: Hepatotoxicity in Kunming mouse assessed as serum ALT level at 106 mg/kg, ig after 48 hrs by colorimetric method (reference value: 42.7 +/- 6.3 U/L); format: toxicity, organism-based; details: in vivo, po
Mus musculus [21] = assay: Hepatotoxicity in Kunming mouse assessed as serum ASAT level at 106 mg/kg, ig after 48 hrs by colorimetric method (reference value: 101.5 +/- 22.3 U/L); format: toxicity, organism-based; details: in vivo, po
Mus musculus [22] = assay: Hepatotoxicity in Kunming mouse assessed as serum ALT level at 106 mg/kg, ig cotreated with THA after 48 hrs by colorimetric method (reference value: 42.7 +/- 6.3 U/L); format: toxicity, organism-based; details: in vivo, po
Mus musculus [23] = assay: Hepatotoxicity in Kunming mouse assessed as serum ASAT level at 106 mg/kg, ig cotreated with THA after 48 hrs by colorimetric method (reference value: 101.5 +/- 22.3 U/L); format: toxicity, organism-based; details: in vivo, po

Cholinesterase, sequence (P81908 whole entry): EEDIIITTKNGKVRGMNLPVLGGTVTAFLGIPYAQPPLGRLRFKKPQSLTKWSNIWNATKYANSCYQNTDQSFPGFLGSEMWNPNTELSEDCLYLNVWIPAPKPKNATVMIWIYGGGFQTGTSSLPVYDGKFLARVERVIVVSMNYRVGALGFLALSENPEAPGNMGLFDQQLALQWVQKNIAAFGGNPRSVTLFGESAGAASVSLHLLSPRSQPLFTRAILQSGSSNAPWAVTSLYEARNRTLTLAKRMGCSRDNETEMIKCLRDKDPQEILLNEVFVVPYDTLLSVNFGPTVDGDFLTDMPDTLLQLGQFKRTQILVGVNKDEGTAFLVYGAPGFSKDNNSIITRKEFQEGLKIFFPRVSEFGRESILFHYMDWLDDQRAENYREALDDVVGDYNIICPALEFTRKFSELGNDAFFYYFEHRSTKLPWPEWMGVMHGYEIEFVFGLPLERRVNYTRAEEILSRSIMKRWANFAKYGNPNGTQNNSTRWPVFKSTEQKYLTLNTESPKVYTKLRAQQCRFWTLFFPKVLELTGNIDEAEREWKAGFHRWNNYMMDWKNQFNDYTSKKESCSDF
Acetylcholinesterase, sequence (O42275 whole entry): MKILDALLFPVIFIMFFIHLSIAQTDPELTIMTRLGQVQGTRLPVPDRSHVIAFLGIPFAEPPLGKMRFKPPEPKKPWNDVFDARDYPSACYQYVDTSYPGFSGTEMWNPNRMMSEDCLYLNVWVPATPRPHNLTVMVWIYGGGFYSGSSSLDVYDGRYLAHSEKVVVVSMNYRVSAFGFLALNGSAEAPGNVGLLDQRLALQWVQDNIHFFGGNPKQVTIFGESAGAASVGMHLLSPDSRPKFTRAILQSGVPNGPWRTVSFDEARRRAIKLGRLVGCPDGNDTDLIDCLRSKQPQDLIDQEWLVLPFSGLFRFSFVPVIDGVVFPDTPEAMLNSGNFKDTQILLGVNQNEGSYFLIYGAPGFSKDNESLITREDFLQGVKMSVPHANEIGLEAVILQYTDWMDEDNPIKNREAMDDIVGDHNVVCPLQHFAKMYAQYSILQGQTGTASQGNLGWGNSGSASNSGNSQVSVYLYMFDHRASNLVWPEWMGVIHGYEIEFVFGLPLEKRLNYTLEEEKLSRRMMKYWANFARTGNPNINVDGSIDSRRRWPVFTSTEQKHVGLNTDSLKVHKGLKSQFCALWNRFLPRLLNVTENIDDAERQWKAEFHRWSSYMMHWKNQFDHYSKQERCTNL
Amyloid-beta precursor protein (Homo sapiens), sequence (P05067 whole entry): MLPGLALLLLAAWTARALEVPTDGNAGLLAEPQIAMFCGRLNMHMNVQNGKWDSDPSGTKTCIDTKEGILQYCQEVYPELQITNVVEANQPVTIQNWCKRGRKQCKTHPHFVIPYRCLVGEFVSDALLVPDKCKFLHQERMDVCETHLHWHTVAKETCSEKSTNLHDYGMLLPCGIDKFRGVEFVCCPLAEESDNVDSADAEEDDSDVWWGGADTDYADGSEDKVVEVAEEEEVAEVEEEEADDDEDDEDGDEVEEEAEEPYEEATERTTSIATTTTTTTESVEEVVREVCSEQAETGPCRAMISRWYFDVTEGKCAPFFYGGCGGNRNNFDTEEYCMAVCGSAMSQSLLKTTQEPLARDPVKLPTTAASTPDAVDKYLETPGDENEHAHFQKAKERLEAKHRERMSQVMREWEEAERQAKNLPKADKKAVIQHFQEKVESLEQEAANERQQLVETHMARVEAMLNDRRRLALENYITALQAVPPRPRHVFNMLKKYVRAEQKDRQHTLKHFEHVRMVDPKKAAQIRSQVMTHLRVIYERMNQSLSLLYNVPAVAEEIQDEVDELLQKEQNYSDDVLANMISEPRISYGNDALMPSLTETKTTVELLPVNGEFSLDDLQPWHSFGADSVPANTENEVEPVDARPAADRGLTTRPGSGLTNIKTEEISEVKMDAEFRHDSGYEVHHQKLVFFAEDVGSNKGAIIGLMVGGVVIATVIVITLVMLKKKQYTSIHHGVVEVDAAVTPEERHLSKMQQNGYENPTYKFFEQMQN
Acetylcholinesterase (Electrophorus electricus), sequence (O42275 24-633 limits assumed): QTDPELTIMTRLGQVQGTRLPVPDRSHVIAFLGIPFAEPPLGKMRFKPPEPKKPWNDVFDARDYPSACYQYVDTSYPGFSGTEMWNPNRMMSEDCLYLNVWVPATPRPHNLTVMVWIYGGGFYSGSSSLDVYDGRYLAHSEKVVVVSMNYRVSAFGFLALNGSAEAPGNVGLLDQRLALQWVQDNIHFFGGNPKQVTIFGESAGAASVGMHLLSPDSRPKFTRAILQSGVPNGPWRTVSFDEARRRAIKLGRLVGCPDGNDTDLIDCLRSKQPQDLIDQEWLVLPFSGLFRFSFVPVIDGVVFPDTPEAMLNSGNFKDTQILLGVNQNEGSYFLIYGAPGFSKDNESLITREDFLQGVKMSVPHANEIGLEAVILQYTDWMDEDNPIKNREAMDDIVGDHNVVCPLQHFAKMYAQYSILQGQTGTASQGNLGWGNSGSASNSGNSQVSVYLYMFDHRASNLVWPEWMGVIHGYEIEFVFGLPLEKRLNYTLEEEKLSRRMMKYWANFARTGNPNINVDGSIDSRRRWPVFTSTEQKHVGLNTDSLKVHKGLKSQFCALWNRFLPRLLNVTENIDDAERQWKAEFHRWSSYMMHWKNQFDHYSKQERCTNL
Cholinesterase (Equus caballus), sequence (P81908 whole entry): as the sequence (P81908 whole entry) above

## COC(=O)c1cc(OC)c2c(c1-c1c(C(=O)NCCCCCCCCCCNc3c4c(nc5ccccc35)CCCC4)cc(OC)c3c1OCO3)OCO2
Acetylcholinesterase
  pIC50: 7.56
Cholinesterase
  pIC50: 8.06
[1]
  inhibition: Active
[2]
  inhibition: Active
[3]
  cytotoxicity at 1 µM: 6.71%
[4]
  cytotoxicity at 10 µM: 10.8%
[5]
  cytotoxicity at 50 µM: 23.1%
[6]
  cytotoxicity at 1 µM: < 5%
[7]
  cytotoxicity at 10 µM: < 5%
[8]
  cytotoxicity at 50 µM: 7.84%
L02 [9]
  Activity: Non-Toxic
L02 [10]
  Activity: 14.1%
Mus musculus [11]
  Activity: Non-Toxic
Mus musculus [12]
  fold change (FC): 1.1
Mus musculus [13]
  fold change (FC): 1.1
Mus musculus [14]
  Activity: Active
Mus musculus [15]
  Activity: Non-Toxic
Mus musculus [16]
  Activity: Non-Toxic

## COC(=O)c1cc(OC)c2c(c1-c1c(C(=O)NCCCCCCCCNc3c4c(nc5ccccc35)CCCC4)cc(OC)c3c1OCO3)OCO2
Acetylcholinesterase
  pIC50: 6.02
Cholinesterase
  pIC50: 8.19
[3]
  cytotoxicity at 1 µM: 5.81%
[4]
  cytotoxicity at 10 µM: 9.53%
[5]
  cytotoxicity at 50 µM: 51.9%
[6]
  cytotoxicity at 1 µM: < 5%
[7]
  cytotoxicity at 10 µM: < 5%
[8]
  cytotoxicity at 50 µM: 38.9%

## COC(=O)c1cc(OC)c2c(c1-c1c(C(=O)NCCCCNc3c4c(nc5ccccc35)CCCC4)cc(OC)c3c1OCO3)OCO2
Acetylcholinesterase
  pIC50: 6.03
Cholinesterase
  pIC50: 7.12
[3]
  cytotoxicity at 1 µM: < 5%
[4]
  cytotoxicity at 10 µM: 11.9%
[5]
  cytotoxicity at 50 µM: 19.5%
[6]
  cytotoxicity at 1 µM: < 5%
[7]
  cytotoxicity at 10 µM: < 5%
[8]
  cytotoxicity at 50 µM: 19.3%

## COC(=O)c1cc(OC)c2c(c1-c1c(C(=O)NCCCCCCCCCCCCNc3c4c(nc5ccccc35)CCCC4)cc(OC)c3c1OCO3)OCO2
Acetylcholinesterase
  pIC50: 7.28
Cholinesterase
  pIC50: 7.45
[3]
  cytotoxicity at 1 µM: 7.35%
[4]
  cytotoxicity at 10 µM: 13.8%
[5]
  cytotoxicity at 50 µM: 46.1%
[6]
  cytotoxicity at 1 µM: < 5%
[7]
  cytotoxicity at 10 µM: < 5%
[8]
  cytotoxicity at 50 µM: 7.76%

## COc1cc(/C=C/C(=O)CC(=O)/C=C/c2ccc(O)c(OC)c2)ccc1O
[2]
  inhibition: Active

## COC(=O)c1cc(OC)c2c(c1-c1c(C(=O)OC)cc(OC)c3c1OCO3)OCO2 [BIFENDATE]
Acetylcholinesterase
  pIC50: < 4.30
Cholinesterase
  pIC50: < 4.30
[17]
  inhibition: inactive
[18]
  inhibition: inactive
[3]
  cytotoxicity at 1 µM: < 5%
[4]
  cytotoxicity at 10 µM: 8.45%
[5]
  cytotoxicity at 50 µM: 11.6%
[6]
  cytotoxicity at 1 µM: < 5%
[7]
  cytotoxicity at 10 µM: < 5%
[8]
  cytotoxicity at 50 µM: 7.21%
Mus musculus [11]
  Activity: Non-Toxic
Mus musculus [19]
  Activity: Non-Toxic
Mus musculus [20]
  Activity: 39.3 U/L
Mus musculus [21]
  Activity: 105 U/L
Mus musculus [22]
  Activity: 41.9 U/L
Mus musculus [23]
  Activity: 110 U/L

## COC(=O)c1cc(OC)c2c(c1-c1c(C(=O)NCCCCCCNc3c4c(nc5ccccc35)CCCC4)cc(OC)c3c1OCO3)OCO2
Acetylcholinesterase
  pIC50: 6.21
Cholinesterase
  pIC50: 8.40
[3]
  cytotoxicity at 1 µM: < 5%
[4]
  cytotoxicity at 10 µM: < 5%
[5]
  cytotoxicity at 50 µM: 34.4%
[6]
  cytotoxicity at 1 µM: 5.26%
[7]
  cytotoxicity at 10 µM: < 5%
[8]
  cytotoxicity at 50 µM: 27.3%
